Activity calls are given as the source filed them. How the calls were made is not given here.
Biological target: HIV-1 integrase / human LEDGF/p75 complex
Assay: blockers of LEDGF/p75-dependent integrase activity – biochemical, TR-FRET, dose response (AID 1053172)
Details: TR-FRET integrase-LEDGF/p75 DNA integration

Row | Compound | IC50
1 | Brc1ccc(-c2nn3c(-c4ccco4)nnc3s2)o1 | inactive
2 | O=C(Cc1nnc(NC(=O)c2ccccc2)s1)N/N=C\c1ccc(O)c(O)c1 | 2200 nM
3 | CCOc1ccc(Nc2ccc(N)c(S(=O)(=O)O)c2)cc1 | inactive
4 | O=C(CCN1C(=O)/C(=C/c2ccco2)SC1=S)Nc1ccc(O)cc1C(=O)O | inactive
5 | CCOc1cccc(N2C(=O)/C(=C/c3ccco3)C(=O)NC2=S)c1 | 1550 nM
